Laboratory results taken from patent US10080748B2, “Use of flap inhibitors to reduce neuroinflammation mediated injury in the central nervous system” (Bioscience Pharma Partners, LLC, priority 2014, dated 2018).
Where a name gives a salt, the structure may show the parent alone. Read-outs that look alike come from different tables or passages of the source. Values belong to the compound of their own block, whether it stands above or below them.

How the values were obtained:
human whole blood = assay: Human whole blood bioassay of LTB4, 5-HETE and AA production; format: cell-based
Source text: The results are for the effects of these two FLAP inhibitors on LTB4 production and 5-HETE production. It is known that indole-acetic acid FLAP inhibitors like MK-886, MK-591 display high plasma protein binding. Thus, the potencies of these FLAP inhibitors for blocking leukotrienes in vivo are about 100 fold higher than the affinity of the inhibitors for FLAP binding. The inventors developed a bioassay that closely predicts the in vivo potency of FLAP inhibitors using human whole blood. Briefly, whole blood is incubated with a calcium ionophore like […] or zymosan in the absence or presence of increasing concentrations of a FLAP inhibitor. After incubation at 37° C. for 30 minutes, the samples are centrifuged and the plasma supernatant is subjected to reverse phase liquid chromatography coupled to tandem mass spectrometry to quantify levels of LTB4, 5-HETE, and AA production. Drug IC50 values are determined by non-linear regression analysis (GraphPad Prism).). […] As FLAP inhibitors are poorly water soluble drugs, the inventors have shown that such hydrophobic drugs can be formulated in a carrier comprising one or more vegetable oils, such as olive oil, and phosphatidylserine that are found on the Generally Accepted as Safe (GRAS) list and that such drugs can then be rapidly delivered and targeted to the brain and upper spinal cord. Hanson L R, et al, Drug Delivery 19(3):149-54, 2012.

[1] = Brain and plasma levels 30 minutes after intranasal administration; format: in vivo, rat; settings: intranasal 60 micrograms/32 ul lipid carrier, 30 minutes post-dosing
Protocol: For intranasal delivery and subsequent tissue collection, rats were anesthetized with 3.5% isoflurane and placed in a supine position on top of a heating pad. The quinoline-indole FLAP inhibitor MK-591, 60 micrograms (μg) formulated with a lipid carrier was administered using a P20 pipette. Specifically, 4 μl drops were formed at the pipette tip and lowered to alternating nostrils every two minutes until a total of eight 4 μl drops were administered. At 30 minutes after the start of intranasal delivery, blood was collected from the heart, and rats were transcardially perfused with 60 ml ice-cold 0.9% NaCl followed by 360 ml 4% paraformaldehyde at 15 ml/minute. Brain tissues were dissected into anatomical regions on ice, weighed, snap-frozen in liquid N2, and stored at −70° C. until analysis. The levels of MK-591 in tissues and plasma were measured by tandem mass spectroscopy.
The MK-591 was formulated in a lipid carrier solution as described above. […] The rats were briefly anesthetized with 3.5% isoflurane and intranasal MK-591 (60 micrograms/32 ul lipid carrier) was administered in eight 4 ul aliquots to the nasal mucosa alternating between each nostril. The amount of drug was determined with the goal of reaching 200 nM concentration of drug which corresponds to 100× the Kd value for binding to FLAP. At 30 minutes post-dosing, blood was collected from anesthetized animals using a heparanized needle and plasma was separated from blood by centrifugation. The animals were then perfused with saline, while still under anesthesia, to remove drug in the blood of the cerebrovasculature. After perfusion the animals were euthanized and brain regions were rapidly removed. Both plasma and brain tissue samples were frozen in liquid nitrogen followed by storage at −80° C. Drug levels in the peripheral plasma and parenchymal brain tissues were assessed using a validated tandem mass spectroscopy platform. Values are expressed in ng of MK-591/mg tissue. […] The concentration of MK-591 in the cortex was 200 nM, the target concentration.

[2] = Brain and plasma levels 30 minutes after intraperitoneal administration; format: in vivo, rat; settings: intraperitoneal 10 mg/kg in 20% DMSO/saline; 30 minutes post-dosing
Protocol: The rats were injected intraperitoneally with MK-591 (10 mg/kg in 20% DMSO/saline solution). At 30 minutes post-dosing, blood was collected from anesthetized animals using a heparanized needle and plasma was separated from blood by centrifugation. The animals were then perfused with saline, while still under anesthesia, to remove drug in the blood of the cerebrovasculature. After perfusion the animals were euthanized and brain hemispheres were rapidly removed. Both plasma and brain tissue samples were frozen in liquid nitrogen followed by storage at −80° C. Drug levels in the peripheral plasma and brain were assessed using a validated tandem RP-LC/MS/MS platform. […] Using the conversion of 1 ml=1 gm. The total volume of blood was 2 ml (or […]). The total weight of the brain hemisphere (minus cerebellum) is […]. Values are expressed in ng of MK-591/mg tissue.

[3] = system: mice subjected to CHI (mTBI model); assay: GFAP and Iba-1 immunohistochemical staining, mouse closed head injury (CHI) model; format: in vivo; settings: 5 mg/kg IP once daily for 6 days after CHI; 7 dpi
[4] = cited from earlier work
[5] = cited from earlier work; remark: listed apart in the source
[6] = system: Primary neurons cultured from newborn rats; assay: Apoptosis of primary neurons in vitro
Protocol: Primary neurons cultured from newborn rats were incubated in the presence of increasing concentrations of LTC4 or LTD4 for 16 hours.

[7] = system: leukotriene LTC4 production; assay: LTC4 levels in brain after rat fluid percussion injury (RP LC-MS/MS); format: in vivo; settings: neutrophil depletion, 0.5 mg/kg IV four days prior to TBI; 1 hour after FPI
Protocol: Craniotomy and lateral fluid percussion injury (FPI) were performed using a previously validated and published procedure. Farias S, et al. J. Neurotraum, 26, 1977-1986, 2009; Frey L. C. et al. J. Neurosci. Methods 177, 267-272, 2009. Throughout the specification animals subjected to this protocol are referred to as having a TBI since this treatment protocol is a TBI model. Briefly, rats were anesthetized with 3-5% isoflurane, isosol, VEDCO Inc., St. Joseph, Mo., via nose cone and mounted in a stereotaxic head frame. A 3 millimeter (mm) craniotomy was created and centered at 3 mm caudal to bregma and 3.5 mm left of the sagittal suture, keeping the exposed dura intact. One steel support screw was embedded in the skull on the contralateral side. A Luer-Lock hub with an inside diameter of 3.5 mm was centered over the craniotomy and bonded to the skull with cyanoacrylate adhesive and capped. Dental acrylic, Snap, Parka, Inc., Edgewood, N.J., was poured around the huh and screw. After the acrylic hardened antibiotic ointment was applied around the cap and the animals were returned to their cages. The next day, approximately 15-20 hours later, animals were anesthetized with isoflurane in an induction chamber, immediately connected to the FPI apparatus, and received a 20 millisecond (ms) pulse of pressurized sterile saline at 2.7 atmospheres (atm) of pressure to simulate a moderate severity impact on the intact dural surface through the craniotomy before awakening from anesthesia. […] All animals received a subcutaneous injection of the analgesic, buprenorphine, 0.05 milligram/kilogram (mg/kg) Buprenex, prior to craniotomy, and subsequent injections every 12 hours for two days. Moistened food pellets were provided after injury, and all animals were monitored daily for well-being and weight changes.
Two groups of four rats each were subjected to FPI as described above. Four days prior to the FPI, each animal was briefly anesthetized for less than 5 minutes with 3-3.5% isoflurane and administered either NaCl 0.9%, 2 ml/kg IV (vehicle) or vinblastine sulfate 0.5 mg/kg IV in an identical volume. Neutrophil depletion was verified by complete cell blood counts (CBC) in vinblastine treated animals 4 days after administration. Both groups were euthanized by decapitation and the brain lipids extracted 1 hour after FPI. The amounts of LTC4 formed, measured by RP LC-MS/MS and normalized per milligram of protein, were compared between groups using one-way analysis of variance and the Student-Newman-Keuls test for multiple comparisons.
The indole FLAP inhibitor MK-886 was prepared at a dose of 2.5 milligram/milliliter (mg/ml), dissolved in dimethyl sulfoxide (DMSO) and then diluted with 0.9% saline to 10% DMSO. The rats were briefly anesthetized with 3-3.5% isoflurane and either […] at a dose of 6 mg/kg or vehicle was administered intravenously (IV) by tail vein injection. All animals were allowed to wake before undergoing additional procedures.
Cortical and hippocampal regions from ipsilateral and contralateral hemispheres were collected in 4 ml of 80% methanol, homogenized with a Dounee homogenizer, and internal standards were added to the homogenates. Protein content was measured using bicinchoninic acid assay (BCA) for protein to normalize lipid levels to the amount of tissue. Samples were centrifuged and the supernatant was collected. Samples were diluted to a final methanol concentration of lower than 15% and then the lipids were extracted using a solid phase extraction cartridge, Strata C18-E, 100 mg/1 ml, Phenomenex, Torrence Calif. The eluate, 1 ml of methanol, was dried down and reconstituted in 70 microliters (μl) of High Performance Liquid Chromotography (HPLC) solvent A, which is 8.3 mM acetic acid buffered to pH 5.7 with NH4OH, plus […] of solvent B, which is acetonitrile/methanol, 65/35, v/v. […]

concentration at 30 min ([1]; rat, brain cortex, other: intranasal): 200 nM
SMILES: CC(C)(C)Sc1c(CC(C)(C)C(=O)O)n(Cc2ccc(Cl)cc2)c2ccc(OCc3ccc4ccccc4n3)cc12 [MK-591]
potency compared with MK-886 (human whole blood): more potent | AA production (human whole blood; human whole blood, data not shown): neither of the FLAP inhibitors effected AA production | brain localization (rank of regions by level) [1]: highest level of MK-591 was detected in the olfactory bulbs, followed by the hippocampus, and cortex | levels of drug in plasma versus brain [1]: lower than the amount of drug reaching the brain | distribution between plasma and brain tissue [2]: most of the drug was in the plasma with much lower levels found in brain tissue | GFAP staining in cerebral cortex, external capsule and dentate gyrus [3]: significantly blocked the increase | Iba-1 staining in cerebral cortex, external capsule and dentate gyrus [3]: significantly blocked the increase | plasma protein binding [4]: high | t1/2 compared with MK-886 [5]: longer

SMILES: CCCCC/C=C\C\C=C/C=C/C=C/[C@@H](SC[C@H](N)C(=O)NCC(=O)O)[C@@H](O)CCCC(=O)O [LTD4, leukotriene D4]
neuronal apoptosis [6]: induce neuronal apoptosis

SMILES: CC[C@]1(O)C[C@@H]2CN(CCc3c([nH]c4ccccc34)[C@@](C(=O)OC)(c3cc4c(cc3OC)N(C)[C@H]3[C@@](O)(C(=O)OC)[C@H](OC(C)=O)[C@]5(CC)C=CCN6CC[C@]43[C@@H]65)C2)C1 [vinblastine, vinblastine sulfate]
leukotriene production in the ipsilateral hemisphere [7]: markedly reduced

SMILES: CCCCC/C=C\C\C=C/C=C/C=C/[C@@H](SC[C@H](NC(=O)CC[C@H](N)C(=O)O)C(=O)NCC(=O)O)[C@@H](O)CCCC(=O)O [LTC4, leukotriene C4]
neuronal apoptosis ([6]; increasing concentrations, 16 hours, dose-dependent): induce neuronal apoptosis
